Source: paper PMC5607274, “An iterative compound screening contest method for identifying target protein inhibitors using the tyrosine-protein kinase Yes” (Scientific Reports, 2017)

Biological target: T1, human recombinant Yes [a.a. 2–543 (end)] (Homo sapiens, UniProt P07947)
T1 construct: human recombinant Yes [a.a; 2–543 (end)]; purchased BPS Bioscience 40488
Assay: ADP-Glo kinase assay, inhibition rates of Yes phosphorylation activity (first and second screening)
Type: biochemical
Details: first screening; mean of n = 4 wells; 10 μmol L−1 compound
Method in brief: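 Hits from a first pass were rescreened after re-dissolution from fresh powder. The first pass reported the mean inhibition rate of quadruplicate wells per compound. Activity was that of recombinant human Yes [a.a. 2–543] kinase, read out with the ADP-Glo ADP-detection method.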

T1 sequence (P07947 2-543): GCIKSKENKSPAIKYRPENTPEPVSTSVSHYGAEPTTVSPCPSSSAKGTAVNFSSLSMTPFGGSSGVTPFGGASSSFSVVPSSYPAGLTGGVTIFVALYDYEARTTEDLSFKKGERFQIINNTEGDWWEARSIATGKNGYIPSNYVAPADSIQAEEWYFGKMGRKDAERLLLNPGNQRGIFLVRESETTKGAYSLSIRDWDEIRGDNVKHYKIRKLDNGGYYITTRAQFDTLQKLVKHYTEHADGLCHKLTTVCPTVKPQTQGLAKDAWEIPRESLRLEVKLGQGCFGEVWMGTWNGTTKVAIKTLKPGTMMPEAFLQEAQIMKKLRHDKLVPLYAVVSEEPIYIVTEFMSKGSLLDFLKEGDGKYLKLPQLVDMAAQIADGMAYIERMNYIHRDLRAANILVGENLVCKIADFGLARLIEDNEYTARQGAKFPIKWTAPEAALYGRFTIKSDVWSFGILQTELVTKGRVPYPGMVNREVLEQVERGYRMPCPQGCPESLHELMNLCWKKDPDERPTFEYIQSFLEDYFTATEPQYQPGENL

Row | Structure (SMILES) | First screening IR (inhibition rate)
1 | Cc1ccc(-c2cc(-c3ccccc3)c3cc(Cl)ccc3n2)cc1.Cl [Compound Z48950811] | 59%
2 | Cc1c(-c2ccccc2)nc2ccc(Cl)cc2c1-c1ccccc1.Cl [Compound Z48950813] | 20%
3 | Cl.Oc1ccc(-c2cc(-c3ccccc3)c3cc(Cl)ccc3n2)cc1 [Compound Z48950817] | 51%
4 | Cl.Clc1ccc(-c2cc(-c3ccccc3)c3cc(Cl)ccc3n2)cc1 [Compound Z48950819] | 36%
5 | Cl.N#Cc1ccc(-c2cc(-c3ccccc3)c3cc(Cl)ccc3n2)cc1 [Compound Z48950825] | 58%
6 | Cc1c(-c2ccc(O)cc2)nc2ccc(Cl)cc2c1-c1ccccc1.Cl [Compound Z48950829] | 33%
7 | Cc1ccc(O)c(-c2cc(-c3ccccc3)c3cc(Cl)ccc3n2)c1.Cl [Compound Z48950854] | -11%
8 | Cl.Oc1ccccc1-c1cc(-c2ccccc2)c2cc(Cl)ccc2n1 [Compound Z48950876] | 3%
9 | Cl.Fc1ccc(-c2nc3ccc(Cl)cc3c(-c3ccccc3)c2CCCl)cc1 [Compound Z48950878] | 10%
10 | Cl.Fc1ccccc1-c1cc(-c2ccccc2)c2ccccc2n1 [Compound Z48951009] | 5%
11 | Cl.Fc1ccc(-c2cc(-c3ccccc3)c3ccccc3n2)cc1 [Compound Z48951014] | 18%
12 | COc1cccc(-c2cc(-c3ccccc3)c3ccccc3n2)c1.Cl [Compound Z48951025] | -6%
13 | Brc1ccc(-c2cc(-c3ccccc3)c3ccccc3n2)cc1.Cl [Compound Z48951036] | 5%
14 | Cc1ccc(-c2cc(-c3ccccc3)c3ccccc3n2)cc1.Cl [Compound Z48951039] | 11%
15 | Cl.Oc1ccc(-c2cc(-c3ccccc3)c3ccccc3n2)cc1 [Compound Z48951045] | 24%
16 | Cl.Clc1ccc(-c2cc(-c3ccccc3)c3ccccc3n2)cc1 [Compound Z48951047] | 8%
17 | COc1ccccc1-c1cc(-c2ccccc2)c2ccccc2n1.Cl [Compound Z48951051] | 3%
18 | Cl.Fc1cccc(F)c1-c1cc(-c2ccccc2)c2ccccc2n1 [Compound Z48951059] | 4%
19 | Cc1c(-c2ccc(OC(F)F)cc2)nc2ccccc2c1-c1ccccc1.Cl [Compound Z48951073] | 4%
20 | Cc1ccc(O)c(-c2cc(-c3ccccc3)c3ccccc3n2)c1.Cl [Compound Z48951082] | 1%

Row | Structure (SMILES) | First screening IR (inhibition rate)
21 | Cc1c(-c2ccccc2)nc2ccc(Cl)cc2c1-c1ccccc1Cl.Cl [Compound Z48951725] | -2%
22 | Cl.Oc1ccc(-c2cc(-c3ccccc3Cl)c3cc(Cl)ccc3n2)cc1 [Compound Z48951729] | 10%
23 | Cl.Clc1ccc(-c2cc(-c3ccccc3Cl)c3cc(Cl)ccc3n2)cc1 [Compound Z48951731] | -3%
24 | Cl.N#Cc1ccc(-c2cc(-c3ccccc3Cl)c3cc(Cl)ccc3n2)cc1 [Compound Z48951737] | 1%
25 | Cc1c(-c2ccc(O)cc2)nc2ccc(Cl)cc2c1-c1ccccc1Cl.Cl [Compound Z48951741] | 40%
26 | Cc1ccc(-c2c3c(nc4sc5c(c24)CCC5)CCC(C(C)(C)C)C3)cc1.Cl (stereo not shown) [Compound Z48952614] | 4%
27 | Cl.Fc1ccccc1-c1c2c(nc3ccc(Cl)cc13)-c1ccccc1OC2 [Compound Z48955788] | -15%
28 | Cl.Fc1ccccc1-c1cc(-c2ccccc2F)c2cc(Cl)ccc2n1 [Compound Z48955797] | 11%
29 | Cl.Fc1ccccc1-c1c2c(nc3ccc(Cl)cc13)-c1ccccc1CC2 [Compound Z48955803] | 15%
30 | Cl.Fc1ccccc1-c1cc(-c2ccccc2)nc2ccc(Cl)cc12 [Compound Z48955825] | -1%
31 | Cc1ccc(-c2cc(-c3ccccc3F)c3cc(Cl)ccc3n2)cc1.Cl [Compound Z48955827] | 12%
32 | Cl.N#Cc1ccc(-c2cc(-c3ccccc3F)c3cc(Cl)ccc3n2)cc1 [Compound Z48955841] | 3%
33 | Cc1c(-c2ccc(O)cc2)nc2ccc(Cl)cc2c1-c1ccccc1F.Cl [Compound Z48955845] | 3%
34 | Cc1cc(C)nc(N/N=C/c2ccc3ncccc3c2)n1 [Compound Z49539423] | -6%
35 | COc1cc(/C=N/NC(=O)c2cccnc2)ccc1OC(=O)c1cccnc1 [Compound Z49575448] | 10%
36 | O=C(O)c1cccc(N/N=C/c2ccc(N(c3ccccc3)c3ccccc3)cc2)c1 [Compound Z49584790] | 18%
37 | Oc1cccc(/C=N/Nc2ccnc3cc(Cl)ccc23)c1 [Compound Z49625857] | -13%
38 | CCOc1cc(/C=N/Nc2ccnc3cc(Cl)ccc23)ccc1O [Compound Z49625899] | 9%
39 | COc1ccc(/C=N/Nc2ccnc3cc(Cl)ccc23)cc1O [Compound Z49625943] | 26%
40 | COc1cc(/C=N/Nc2ccnc3cc(Cl)ccc23)ccc1OC(F)F [Compound Z49626092] | -10%

Results, then the molecule that gave them:

Row | First screening IR (inhibition rate) | Structure (SMILES)
41 | -1% | COc1cc(/C=N/NC(=O)c2cc(-c3cccnc3)nc3ccccc23)ccc1OCc1ccc(Cl)cc1 [Compound Z49638448]
42 | 44% | CCn1c(O)c(N=Nc2ccc([N+](=O)[O-])cc2S(=O)(=O)Nc2ccc(C)cc2C)c2ccccc21 [Compound Z49643067]
43 | 27% | O=S(=O)(N/N=C/c1ccc(N(c2ccccc2)c2ccccc2)cc1)c1ccc(Br)cc1 [Compound Z49646816]
44 | -9% | Oc1[nH]c2ccc(Br)cc2c1N=Nc1ccccn1 [Compound Z49660185]
45 | 2% | Cc1nc2ccccc2c(=O)n1/N=C/c1c2ccccc2cc2ccccc12 [Compound Z49732101]
46 | 13% | COc1cc(/C=N/Nc2ncnc3scc(-c4ccccc4)c23)ccc1O [Compound Z49889617]
47 | 21% | COc1cc(/C=N/Nc2ncnc3sc(C)c(C)c23)ccc1O [Compound Z49890548]
48 | 5% | Cc1sc2ncnc(N/N=C/c3cccc(Br)c3)c2c1C [Compound Z49890557]
49 | 3% | Cc1sc2ncnc(N/N=C/c3ccncc3)c2c1C [Compound Z49890729]
50 | 14% | Cc1sc2ncnc(N/N=C/c3cccc(O)c3)c2c1C [Compound Z49890739]
51 | 3% | Cc1cccc(/C=N/Nc2ncnc3sc(C)c(C)c23)c1 [Compound Z49890788]
52 | 4% | COc1ccc(/C=N/Nc2ncnc3sc(C)c(C)c23)cc1O [Compound Z49890825]
53 | 34% | COc1cc(/C=N/Nc2ncnc3sc(-c4ccccc4)cc23)cc(OC)c1OC [Compound Z49894862]
54 | 3% | COc1ccc2c(C)cc(N/N=C/c3ccncc3)nc2c1 [Compound Z50018323]
55 | -3% | CCn1c(-c2ccncc2)nc2c1c(=O)[nH]c(=O)n2Cc1ccccc1 [Compound Z50138431]
56 | -20% | CCCCCn1c(-c2ccc(Sc3ccc(C)cc3)c([N+](=O)[O-])c2)nc2c1c(=O)[nH]c(=O)n2CCCC [Compound Z50141536]
57 | 8% | O=C(OCc1nc(-c2cccs2)no1)c1c(F)cccc1F [Compound Z51088101]
58 | 20% | Cc1onc(-c2c(F)cccc2Cl)c1C(=O)OCc1nc(-c2cccs2)no1 [Compound Z51122297]
59 | 19% | O=C(OCc1nc(-c2cccs2)no1)c1ccc2ccccc2n1 [Compound Z51170832]
60 | 8% | O=C(OCc1nc(-c2cccs2)no1)c1c(F)cccc1Cl [Compound Z51180604]
61 | 0% | COc1ccccc1-c1nnc(SCC(=O)c2ccc(NC(C)=O)cc2F)n1-c1ccccc1 [Compound Z51187459]
62 | -3% | Cc1nnc(COC(=O)c2cc(-c3ccccc3)nc3c2cnn3C(C)C)o1 [Compound Z51550903]
63 | 14% | O=C(CCn1[nH]c(=O)ccc1=O)Nc1ccc(-n2cnnn2)cc1 [Compound Z51737757]
64 | 0% | NC(=O)c1ccc(C(=O)N2CCN(c3ccccn3)CC2)cc1 [Compound Z51750245]
65 | 12% | CC(C)n1ncc2c(C(=O)N(C)CC(=O)Nc3ccc(F)c(F)c3F)cc(-c3ccccc3)nc21 [Compound Z51761022]
66 | 4% | Cc1c(C(=O)NCCOc2ccccc2)[nH]c2c1C(=O)CCC2 [Compound Z51800409]
67 | -10% | CC(C)n1ncc2c(C(=O)Nc3ccccc3)cc(-c3ccccc3)nc21 [Compound Z51820408]
68 | 36% | Cc1c(C(=O)NCCOc2ccccc2F)[nH]c2c1C(=O)CCC2 [Compound Z51995316]
69 | 3% | Cc1cc(C)n(CCCNC(=O)c2[nH]c3c(c2C)C(=O)CCC3)n1 [Compound Z51995634]
70 | 8% | Cc1c(C(=O)NCCSc2ccc(Br)cc2)[nH]c2c1C(=O)CCC2 [Compound Z51996046]

Same assay, conditions: second screening, dissolved from fresh powder; n = 4; 10 μmol L−1 compound

Row | Structure (SMILES) | Second screening IR (inhibition rate)
71 | Cc1ccc(-c2cc(-c3ccccc3)c3cc(Cl)ccc3n2)cc1.Cl [Compound Z48950811] | -7%
72 | Cl.Oc1ccc(-c2cc(-c3ccccc3)c3cc(Cl)ccc3n2)cc1 [Compound Z48950817] | -2%
73 | Cl.Clc1ccc(-c2cc(-c3ccccc3)c3cc(Cl)ccc3n2)cc1 [Compound Z48950819] | -13%
74 | Cc1c(-c2ccc(O)cc2)nc2ccc(Cl)cc2c1-c1ccccc1.Cl [Compound Z48950829] | 14%
75 | COc1ccc(/C=N/Nc2ccnc3cc(Cl)ccc23)cc1O [Compound Z49625943] | -17%
76 | COc1cc(/C=N/Nc2ncnc3sc(-c4ccccc4)cc23)cc(OC)c1OC [Compound Z49894862] | 22%
